From patent US8598202B2, “Aryl-hydroxyethylamino-pyrimidines and triazines as modulators of fatty acid amide hydrolase” (Janssen Pharmaceutica NV, priority 2008, dated 2013)
Counter-ions that a name gives are not always drawn. Each block holds one molecule with its values, some of them ahead of it.

Key:
Rat FAAH-1 = target: T1, Rat FAAH-1 (Rattus norvegicus, UniProt P97612); experiment: Assay Method 2: rat FAAH-1 assay, 3H-anandamide hydrolysis in homogenate of SK-N-MC cells transfected with rat FAAH
T1 sequence (P97612 1-579): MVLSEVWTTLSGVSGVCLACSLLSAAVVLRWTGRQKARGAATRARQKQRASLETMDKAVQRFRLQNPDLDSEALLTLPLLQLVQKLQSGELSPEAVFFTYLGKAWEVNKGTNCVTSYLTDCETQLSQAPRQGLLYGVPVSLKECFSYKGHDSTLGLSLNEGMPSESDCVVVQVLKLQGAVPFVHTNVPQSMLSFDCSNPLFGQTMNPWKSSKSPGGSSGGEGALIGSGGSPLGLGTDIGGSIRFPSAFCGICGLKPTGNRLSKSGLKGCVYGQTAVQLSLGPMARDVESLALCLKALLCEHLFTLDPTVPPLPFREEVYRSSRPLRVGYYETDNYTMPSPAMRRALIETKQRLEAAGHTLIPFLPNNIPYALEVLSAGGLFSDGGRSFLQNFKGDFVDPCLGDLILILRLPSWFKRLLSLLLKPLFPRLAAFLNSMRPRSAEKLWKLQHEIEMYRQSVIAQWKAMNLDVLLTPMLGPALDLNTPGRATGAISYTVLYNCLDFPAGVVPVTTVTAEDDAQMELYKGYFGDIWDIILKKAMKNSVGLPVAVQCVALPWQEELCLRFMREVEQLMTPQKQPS

FAAH = target: T2, FAAH (Homo sapiens, UniProt O00519); experiment: Assay Method 1: FAAH assay, 3H-anandamide hydrolysis in homogenate of T84 cells or SK-N-MC cells transfected with human FAAH
T2 sequence (O00519 1-579): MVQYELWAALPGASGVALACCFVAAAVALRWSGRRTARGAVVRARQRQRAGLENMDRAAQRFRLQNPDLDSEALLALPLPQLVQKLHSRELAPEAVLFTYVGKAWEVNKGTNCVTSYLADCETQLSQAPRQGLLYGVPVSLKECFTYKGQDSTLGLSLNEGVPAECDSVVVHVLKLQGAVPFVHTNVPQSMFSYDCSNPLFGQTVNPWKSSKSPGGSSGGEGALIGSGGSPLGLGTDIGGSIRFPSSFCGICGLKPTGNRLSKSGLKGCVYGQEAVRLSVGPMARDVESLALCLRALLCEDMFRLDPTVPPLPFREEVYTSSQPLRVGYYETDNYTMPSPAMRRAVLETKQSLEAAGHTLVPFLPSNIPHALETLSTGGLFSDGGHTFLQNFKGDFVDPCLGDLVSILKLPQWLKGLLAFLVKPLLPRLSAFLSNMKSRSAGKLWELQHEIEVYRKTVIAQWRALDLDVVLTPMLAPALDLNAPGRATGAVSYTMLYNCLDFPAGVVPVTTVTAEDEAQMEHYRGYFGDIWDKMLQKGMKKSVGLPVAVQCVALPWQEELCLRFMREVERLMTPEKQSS

SMILES: COc1ccc(C(O)CNc2cc(-c3ccc(C(F)(F)F)c(Cl)c3)ncn2)cc1Cl (centres unmarked) [Example 203, 1-(3-Chloro-4-methoxyphenyl)-2-({6-[3-chloro-4-(trifluoromethyl)phenyl]pyrimidin-4-yl}amino)ethanol]
IC50 (Rat FAAH-1): 200 nM | IC50 (FAAH): 270 nM

SMILES: OC(CNc1cc(-c2ccc(OC(F)(F)F)cc2)ncn1)c1ccc(C(F)(F)F)cc1 (centres unmarked) [Example 108, 2-[(6-{4-[(Trifluoromethyl)oxy]phenyl}pyrimidin-4-yl)amino]-1-[4-(trifluoromethyl)phenyl]ethanol]
IC50 (Rat FAAH-1): 150 nM | IC50 (FAAH): 110 nM

SMILES: OC(CNc1cc(-c2ccc(C(F)(F)F)c(Cl)c2)ncn1)c1cc(C(F)(F)F)ccc1F (centres unmarked) [Example 205, 2-({6-[3-Chloro-4-(trifluoromethyl)phenyl]pyrimidin-4-yl}amino)-1-[2-fluoro-5-(trifluoromethyl)phenyl]ethanol]
IC50 (Rat FAAH-1): 14 nM | IC50 (FAAH): 80 nM

SMILES: CCCOc1ccc(-c2cc(NC[C@H](O)c3ccccc3)ncn2)cc1 [Example 44, (1R)-1-Phenyl-2-{[6-(4-propoxyphenyl)pyrimidin-4-yl]amino}ethanol trifluoroacetic acid salt]
IC50 (Rat FAAH-1): 600 nM | IC50 (FAAH): 50 nM

SMILES: Cc1ccc(-c2cc(NCC(O)c3ccccc3)ncn2)cc1C (centres unmarked) [Example 223, 2-{[6-(3,4-Dimethylphenyl)pyrimidin-4-yl]amino}-1-phenylethanol]
IC50 (Rat FAAH-1): 707 nM | IC50 (FAAH): 144 nM

SMILES: O[C@@H](CNc1cc(-c2ccc(C(F)(F)F)c(Cl)c2)nc(C(F)(F)F)n1)c1ccccc1 [Example 93, (1R)-2-({6-[3-Chloro-4-(trifluoromethyl)phenyl]-2-(trifluoromethyl)pyrimidin-4-yl}amino)-1-phenylethanol trifluoroacetic acid salt]
IC50 (Rat FAAH-1): 152 nM | IC50 (FAAH): 183 nM

SMILES: O[C@@H](CNc1cc(-c2cc3cc(OC(F)(F)F)ccc3s2)ncn1)c1ccccc1 [Example 185, (1R)-1-Phenyl-2-({6-[5-(trifluoromethoxy)-1-benzothiophen-2-yl]pyrimidin-4-yl}amino)ethanol trifluoroacetic acid salt]
IC50 (Rat FAAH-1): 90 nM | IC50 (FAAH): 20 nM

SMILES: O[C@H](CNc1cc(-c2ccc(C(F)(F)F)c(Cl)c2)ncn1)c1ccc(Cl)c(F)c1 [Example 145, (1S)-1-(4-Chloro-3-fluoro-phenyl)-2-[6-(3-chloro-4-trifluoromethyl-phenyl)-pyrimidin-4-ylamino]-ethanol]
IC50 (Rat FAAH-1): 2000 nM | IC50 (FAAH): 7000 nM

SMILES: COc1ccc(C(O)CNc2cc(-c3ccc(C(F)(F)F)c(Cl)c3)ncn2)cc1OC (centres unmarked) [Example 202, 2-({6-[3-Chloro-4-(trifluoromethyl)phenyl]pyrimidin-4-yl}amino)-1-(3,4-dimethoxyphenyl)ethanol]
IC50 (Rat FAAH-1): 100 nM | IC50 (FAAH): 225 nM

SMILES: O[C@@H](CNc1cc(-c2ccc(F)c(F)c2)ncn1)c1ccccc1 [Example 59, (1R)-2-{[6-(3,4-Difluorophenyl)pyrimidin-4-yl]amino}-1-phenylethanol trifluoroacetic acid salt]
IC50 (Rat FAAH-1): 1000 nM | IC50 (FAAH): 307 nM

SMILES: CC(=O)c1ccc(-c2cc(NC[C@H](O)c3ccccc3)ncn2)cc1 [Example 17, 1-[4-(6-{[(2R)-2-Hydroxy-2-phenylethyl]amino}pyrimidin-4-yl)phenyl]ethanone]
IC50 (Rat FAAH-1): 10 nM | IC50 (FAAH): 12 nM

SMILES: OC(CNc1cc(-c2ccc(C(F)(F)F)c(Cl)c2)ncn1)c1ccc(Cl)c(F)c1 (centres unmarked) [Example 133, 1-(4-Chloro-3-fluoro-Phenyl)-2-[6-(3-chloro-4-trifluoromethyl-phenyl)-pyrimidin-4-ylamino]-ethanol trifluoroacetic acid salt]
IC50 (Rat FAAH-1): 15 nM | IC50 (FAAH): 30 nM

More lines, now with the values ahead:

IC50 (Rat FAAH-1): 1500 nM | IC50 (FAAH): 8000 nM
SMILES: O=S(=O)(c1ccc(-c2cc(NC[C@H](O)c3ccccc3)ncn2)cc1)N1CCSCC1 [Example 172, (1R)-1-Phenyl-2-({6-[4-(thiomorpholin-4-ylsulfonyl)phenyl]pyrimidin-4-yl}amino)ethanol]

IC50 (Rat FAAH-1): 40 nM | IC50 (FAAH): 20 nM
SMILES: Cc1nc(NC[C@H](O)c2ccccc2)cc(-c2ccc(C(F)(F)F)c(Cl)c2)n1 [Example 73, (1R)-2-({6-[3-Chloro-4-(trifluoromethyl)phenyl]-2-methylpyrimidin-4-yl}amino)-1-phenylethanol]

IC50 (Rat FAAH-1): 7 nM | IC50 (FAAH): 20 nM
SMILES: CCNc1nc(NC[C@H](O)c2ccccc2)cc(-c2ccc(C(F)(F)F)c(Cl)c2)n1 [Example 159, (1R)-2-({6-[3-Chloro-4-(trifluoromethyl)phenyl]-2-(ethylamino)pyrimidin-4-yl}amino)-1-phenylethanol trifluoroacetic acid salt]

IC50 (Rat FAAH-1): 28 nM | IC50 (FAAH): 6 nM
SMILES: CSc1nc(NC[C@H](O)c2ccccc2)cc(-c2ccc(C(F)(F)F)c(Cl)c2)n1 [Example 60, (1R)-2-({6-[3-Chloro-4-(trifluoromethyl)phenyl]-2-(methylsulfanyl)pyrimidin-4-yl}amino)-1-phenylethanol trifluoroacetic acid salt]

IC50 (Rat FAAH-1): 1500 nM | IC50 (FAAH): 340 nM
SMILES: OCc1ccc(-c2cc(NC[C@H](O)c3ccccc3)ncn2)cc1 [Example 21, (1R)-2-([6-[4-(Hydroxymethyl)phenyl]pyrimidin-4-yl]amino)-1-Phenylethanol]

IC50 (Rat FAAH-1): 663 nM | IC50 (FAAH): 341 nM
SMILES: N#Cc1ccc(-c2cc(NCC(O)c3ccccc3)ncn2)cc1 (centres unmarked) [Example 226, 4-{6-[(2-Hydroxy-2-phenylethyl)amino]pyrimidin-4-yl}benzonitrile]

IC50 (Rat FAAH-1): > 10000 nM | IC50 (FAAH): 93 nM
SMILES: COc1ccccc1C(O)CNc1cc(-c2ccc(OC(F)(F)F)cc2)ncn1 (centres unmarked) [Example 118, 1-[2-(Methyloxy)phenyl]-2-[(6-{4-[(trifluoromethyl)oxy]phenyl}-pyrimidin-4-yl)amino]ethanol]

IC50 (Rat FAAH-1): 110 nM | IC50 (FAAH): 3460 nM
SMILES: CN(C)CCNc1nc(NC[C@H](O)c2ccccc2)cc(-c2ccc(C(F)(F)F)c(Cl)c2)n1 [Example 158, (1R)-2-[(6-[3-Chloro-4-(trifluoromethyl)phenyl]-2-{[2-(dimethylamino)ethyl]amino}pyrimidin-4-yl)amino]-1-phenylethanol trifluoroacetic acid salt]

IC50 (Rat FAAH-1): > 10000 nM | IC50 (FAAH): 7000 nM
SMILES: Oc1ccc(-c2cc(NCC(O)c3ccccc3)ncn2)cc1 (centres unmarked) [Example 238, 4-[6-(2-Hydroxy-2-phenyl-ethylamino)-pyrimidin-4-yl]-phenol]

IC50 (Rat FAAH-1): 34 nM | IC50 (FAAH): 100 nM
SMILES: OC(CNc1cc(-c2ccc(C(F)(F)F)c(Cl)c2)ncn1)c1ccc(C(F)(F)F)c(F)c1 (centres unmarked) [Example 197, 2-({6-[3-Chloro-4-(trifluoromethyl)phenyl]pyrimidin-4-yl}amino)-1-[3-fluoro-4-(trifluoromethyl)phenyl]ethanol]

IC50 (Rat FAAH-1): 128 nM | IC50 (FAAH): 11 nM
SMILES: CSc1ccc(-c2cc(NCC(O)c3ccccc3)ncn2)cc1 (centres unmarked) [Example 225, 2-[6-(4-Methylsulfanyl-phenyl)-Pyrimidin-4-ylamino]-1-phenyl-ethanol]

IC50 (Rat FAAH-1): 400 nM | IC50 (FAAH): 20 nM
SMILES: O[C@@H](CNc1cc(-c2cc3cc(F)ccc3s2)ncn1)c1ccccc1 [Example 187, (1R)-2-{[6-(5-Fluoro-1-benzothiophen-2-yl)pyrimidin-4-yl}amino]-1-Phenylethanol]

IC50 (Rat FAAH-1): > 10000 nM | IC50 (FAAH): 766 nM
SMILES: Cc1cc(C)cc(-c2cc(NC[C@H](O)c3ccccc3)ncn2)c1 [Example 40, (1R)-2-{[6-(3,5-Dimethylphenyl)pyrimidin-4-yl]amino}-1-phenylethanol trifluoroacetic acid salt]

IC50 (Rat FAAH-1): 25 nM | IC50 (FAAH): 92 nM
SMILES: OC(CNc1cc(-c2ccc(C(F)(F)F)c(Cl)c2)ncn1)c1cccc(SC(F)(F)F)c1 (centres unmarked) [Example 198, 2-({6-[3-chloro-4-(trifluoromethyl)phenyl]pyrimidin-4-yl}amino)-1-[3-[(trifluoromethyl)sulfanyl]phenyl]ethanol]

IC50 (Rat FAAH-1): 535 nM | IC50 (FAAH): 29 nM
SMILES: O=C(c1ccccc1)c1ccc(-c2cc(NC[C@H](O)c3ccccc3)ncn2)cc1 [Example 57, [4-(6-{[(2R)-2-Hydroxy-2-phenylethyl]amino}pyrimidin-4-yl)phenyl](phenyl)methanone trifluoroacetic acid salt]

IC50 (Rat FAAH-1): 446 nM | IC50 (FAAH): 88 nM
SMILES: O[C@@H](CNc1cc(-c2cc(F)cc(Cl)c2)ncn1)c1ccccc1 [Example 43, (1R)-2-{[6-(3-Chloro-5-fluorophenyl)pyrimidin-4-yl]amino}-1-phenylethanol trifluoroacetic acid salt]
